PubChem BioAssay AID248 (DTP/NCI, 2004)
“And” between values parts separate entries of the source, which are not always exact repeats. Identical values can stand only once. Toxic doses and inconclusive results are not listed.

Test system: L1210 leukemia ip in BDF1 mice, survival T/C
Assay: NCI In Vivo Anticancer Drug Screen. Data for tumor model L1210 Leukemia (intraperitoneal) in B6D2F1 (BDF1) mice
Conditions: endpoint: mean survival time, higher = longer survival
Outline: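 Tumor was transplanted into mice, which were then dosed with test compound or vehicle alone. Survival was recorded for each group, and the treated figure was expressed relative to the control figure.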

CCSSCC(NC(=O)OC(C)(C)C)C(=O)O (configuration not stated)
T/C (dose: 50.0 mg/kg/injection, schedule: Q04DX003 (ip), vehicle: other): 97 % of control | T/C (dose: 100.0 mg/kg/injection, schedule: Q01DX001 (ip), vehicle: other): 101 % of control | T/C (dose: 100.0 mg/kg/injection, schedule: Q04DX003 (ip), vehicle: other): 94 % of control | T/C (dose: 200.0 mg/kg/injection, schedule: Q01DX001 (ip), vehicle: other): 97 % of control | T/C (dose: 200.0 mg/kg/injection, schedule: Q04DX003 (ip), vehicle: other): 97 % of control

CCOC(=O)CC1(C)NC(=O)NC1=O (configuration not stated)
T/C (dose: 100.0 mg/kg/injection, schedule: Q01DX009 (ip), vehicle: saline): 104 % of control | T/C (dose: 200.0 mg/kg/injection, schedule: Q01DX009 (ip), vehicle: saline): 90 % of control | T/C (dose: 400.0 mg/kg/injection, schedule: Q01DX009 (ip), vehicle: saline): 98 % of control

CNc1nnnn1-c1ccccc1C
T/C (dose: 100.0 mg/kg/injection, schedule: Q01DX001 (ip), vehicle: Klucel (hydroxypropylcellulose) (HPC)): 93 % of control | T/C (dose: 200.0 mg/kg/injection, schedule: Q01DX001 (ip), vehicle: Klucel (hydroxypropylcellulose) (HPC)): 98 % of control | T/C (dose: 400.0 mg/kg/injection, schedule: Q01DX001 (ip), vehicle: Klucel (hydroxypropylcellulose) (HPC)): 105 % of control

O=CC(NC(=O)N(CCCl)N=O)C(O)C(O)C(O)CO (configuration not stated)
T/C (dose: 2.0 mg/kg/injection, schedule: Q01DX009 (ip), vehicle: carboxymethylcellulose (CMC)): 169 % of control | T/C (dose: 2.0 mg/kg/injection, schedule: Q01DX009 (ip), vehicle: other): 163 % of control | T/C (dose: 2.0 mg/kg/injection, schedule: Q01DX009 (ip), vehicle: saline): 172 % of control | T/C (dose: 3.0 mg/kg/injection, schedule: Q01DX009 (ip), vehicle: carboxymethylcellulose (CMC)): 186 % of control | T/C (dose: 3.0 mg/kg/injection, schedule: Q01DX009 (ip), vehicle: other): 180 % of control | T/C (dose: 3.0 mg/kg/injection, schedule: Q01DX009 (ip), vehicle: saline): 259 % of control | T/C (dose: 4.4 mg/kg/injection, schedule: Q01DX009 (ip), vehicle: carboxymethylcellulose (CMC)): 204 % of control | T/C (dose: 4.4 mg/kg/injection, schedule: Q01DX009 (ip), vehicle: other): 290 % of control | T/C (dose: 4.4 mg/kg/injection, schedule: Q01DX009 (ip), vehicle: saline): 308 % of control | T/C (dose: 4.5 mg/kg/injection, schedule: Q01DX009 (ip), vehicle: saline): 154 % of control | T/C (dose: 6.0 mg/kg/injection, schedule: Q01DX001 (ip), vehicle: carboxymethylcellulose (CMC)): 152 % of control | T/C (dose: 6.0 mg/kg/injection, schedule: Q01DX001 (ip), vehicle: other): 154 % of control | T/C (dose: 6.7 mg/kg/injection, schedule: Q01DX009 (ip), vehicle: carboxymethylcellulose (CMC)): 318 % of control | T/C (dose: 6.7 mg/kg/injection, schedule: Q01DX009 (ip), vehicle: other): 151 % of control | T/C (dose: 6.7 mg/kg/injection, schedule: Q01DX009 (ip), vehicle: saline): 471 % of control | T/C (dose: 6.8 mg/kg/injection, schedule: Q01DX009 (ip), vehicle: saline): 207 % of control | T/C (dose: 9.0 mg/kg/injection, schedule: Q01DX001 (ip), vehicle: carboxymethylcellulose (CMC)): 208 % of control and 213 % of control | T/C (dose: 9.0 mg/kg/injection, schedule: Q01DX001 (ip), vehicle: other): 155 % of control | T/C (dose: 9.0 mg/kg/injection, schedule: Q01DX001 (ip), vehicle: saline): 336 % of control | T/C (dose: 10.0 mg/kg/injection, schedule: Q01DX009 (ip), vehicle: carboxymethylcellulose (CMC)): 281 % of control | T/C (dose: 10.0 mg/kg/injection, schedule: Q01DX009 (ip), vehicle: other): 107 % of control | T/C (dose: 10.0 mg/kg/injection, schedule: Q01DX009 (ip), vehicle: saline): 152 % of control and 243 % of control | T/C (dose: 13.0 mg/kg/injection, schedule: Q01DX001 (ip), vehicle: carboxymethylcellulose (CMC)): 273 % of control and 302 % of control | T/C (dose: 13.0 mg/kg/injection, schedule: Q01DX001 (ip), vehicle: other): 272 % of control | T/C (dose: 13.0 mg/kg/injection, schedule: Q01DX001 (ip), vehicle: saline): 211 % of control and 424 % of control | T/C (dose: 18.0 mg/kg/injection, schedule: Q01DX001 (ip), vehicle: saline): 505 % of control | T/C (dose: 20.0 mg/kg/injection, schedule: Q01DX001 (ip), vehicle: carboxymethylcellulose (CMC)): 455 % of control and 531 % of control | T/C (dose: 20.0 mg/kg/injection, schedule: Q01DX001 (ip), vehicle: other): 575 % of control | T/C (dose: 20.0 mg/kg/injection, schedule: Q01DX001 (ip), vehicle: saline): 296 % of control and 486 % of control | T/C (dose: 26.0 mg/kg/injection, schedule: Q01DX001 (ip), vehicle: saline): 505 % of control | T/C (dose: 30.0 mg/kg/injection, schedule: Q01DX001 (ip), vehicle: carboxymethylcellulose (CMC)): 282 % of control and 537 % of control | T/C (dose: 30.0 mg/kg/injection, schedule: Q01DX001 (ip), vehicle: other): 506 % of control | T/C (dose: 30.0 mg/kg/injection, schedule: Q01DX001 (ip), vehicle: saline): 284 % of control and 617 % of control | T/C (dose: 44.0 mg/kg/injection, schedule: Q01DX001 (ip), vehicle: carboxymethylcellulose (CMC)): 162 % of control | T/C (dose: 45.0 mg/kg/injection, schedule: Q01DX001 (ip), vehicle: carboxymethylcellulose (CMC)): 266 % of control | T/C (dose: 45.0 mg/kg/injection, schedule: Q01DX001 (ip), vehicle: other): 153 % of control
